The values that follow come from publication PMC4747383, “Design of a peptidic inhibitor that targets the dimer interface of a prototypic galectin” (Oncotarget, 2015).

“Also recorded” adds a separate entry of the source.

One test concerns recombinant hGal-7. Nature of the test: Solid phase fluorescent binding assay on hGal-7. Also noted: species or system human. As to conditions: hGal-7 10 μg/ml coated; unlabeled peptide (1 mM) 60 min, then biotin-labeled peptide 120 min, room temperature; Streptavidin R-phycoerythrin fluorescence; three independent experiments. An excerpt: Results are representative of three independent experiments. Error bars represent standard deviation.

In the next test the test system is recombinant hGal-2. Nature of the test: Disruption of hGal-2 dimers, native gel electrophoresis/Western blot. Type of test: biochemical, human. As to conditions: recombinant hGal-2, 20 mM potassium phosphate pH 7.1, films overexposed, three independent experiments. The text has this:
To measure the ability of the peptides to disrupt the formation of hGal-7 dimers, we used mild denaturing native gel electrophoresis, a commonly used approach to visualize monomer-dimer equilibrium (Fig. 1A and Supplementary Fig. S1). […] This specificity at disrupting hGal-7 dimer formation is provided by distinct three-dimensional arrangements between otherwise very similar galectin homologues. Indeed, while all monomeric galectins reveal identical topologies, dimer formation in hGal-7 proceeds through a “back-to-back” topology of the monomers while other galectins, including hGal-1 and hGal-2, adopt a “side-by-side” structural arrangement (Fig. 1B). This structural organization provides additional means to specifically target and disrupt galectin function.
Incubation of the recombinant B. hGal-1 and C. hGal-2 with hGal-7(129–135) was performed in the same potassium phosphate buffer. The effect of hGal-7(129–135) on the monomeric and dimeric forms of hGal-7/hGal-1/hGal-2 was assessed by Western blotting in native conditions with respective antibodies. The hGal-1/hGal-2 films were overexposed. PACAP28–38 was the control peptide used in order to ensure the specificity of hGal-7(129–135). […]
Human Gal-7 cDNA was cloned into pET-22b(+) using NdeI and HindIII restriction enzymes. […] Purified fractions were analyzed by SDS-PAGE. […]
A general note: A western blot detects proteins with antibodies after separation by electrophoresis.

In the case of “H-LDSVRIP-NH2 [hGal-7(129–135), peptide corresponding to hGal-7 segment between residues 129–135]”, the “binding to immobilized hGal-7” value in the test with recombinant hGal-7 is “direct interaction; also recorded: bind hGal-7 in a concentration-dependent and specific manner”. The “disruption of hGal-2 homodimers” value in the test with recombinant hGal-2 was “No such effect was observed”.
